Assays:
HT29 = assay: NCI in vitro DTP human cell line screen, HT29; type: cell-based; conditions: Colon Cancer, 1.00E−5 Molar
Protocol: (§1) Then, a cell toxicity assay of the cancer lines made by National Cancer Institute will be discussed as follows. The cell toxicity assay is performed by choosing ten compounds (existing certification numbers) from the 59 compounds disclosed in the present invention first.

MDA-MB-231/ATCC = assay: NCI in vitro DTP human cell line screen, MDA-MB-231/ATCC; type: cell-based; conditions: Breast Cancer, 1.00E−5 Molar
Protocol: as §1

SK-MEL-5 = assay: NCI in vitro DTP human cell line screen, SK-MEL-5; type: cell-based; conditions: Melanoma, 1.00E−5 Molar
Protocol: as §1

NCI-H460 = assay: NCI in vitro DTP human cell line screen, NCI-H460; type: cell-based; conditions: Non-Small Cell Lung Cancer, 1.00E−5 Molar
Protocol: as §1

MDA-MB-435 = assay: NCI in vitro DTP human cell line screen, MDA-MB-435; type: cell-based; conditions: Melanoma, 1.00E−5 Molar
Protocol: as §1

HCT-116 = assay: NCI in vitro DTP human cell line screen, HCT-116; type: cell-based; conditions: Colon Cancer, 1.00E−5 Molar
Protocol: as §1

SF-268 = assay: NCI in vitro DTP human cell line screen, SF-268; type: cell-based; conditions: CNS Cancer, 1.00E−5 Molar
Protocol: as §1

A3 cell lines = assay: MTT assay, A3 cell lines (lung cancer stem cell); type: cell-based
Description: Please to FIG. 4B, various cell viabilities of the A3 cell lines can be obtained through the MTT assay and illustrated in FIG. 4B while the compounds No. 1˜30 are used to treat A3 cell lines, wherein A3 cell lines are lung cancer stem cell.

MALME-3M = assay: NCI in vitro DTP human cell line screen, MALME-3M; type: cell-based; conditions: Melanoma, 1.00E−5 Molar
Protocol: as §1

LOX IMVI = assay: NCI in vitro DTP human cell line screen, LOX IMVI; type: cell-based; conditions: Melanoma, 1.00E−5 Molar
Protocol: as §1

NCI-H322M = assay: NCI in vitro DTP human cell line screen, NCI-H322M; type: cell-based; conditions: Non-Small Cell Lung Cancer, 1.00E−5 Molar
Protocol: as §1

MCF7 = assay: NCI in vitro DTP human cell line screen, MCF7; type: cell-based; conditions: Breast Cancer, 1.00E−5 Molar
Protocol: as §1

UACC-62 = assay: NCI in vitro DTP human cell line screen, UACC-62; type: cell-based; conditions: Melanoma, 1.00E−5 Molar
Protocol: as §1

NCI/ADR-RES = assay: NCI in vitro DTP human cell line screen, NCI/ADR-RES; type: cell-based; conditions: Ovarian Cancer, 1.00E−5 Molar
Protocol: as §1

OVCAR-8 = assay: NCI in vitro DTP human cell line screen, OVCAR-8; type: cell-based; conditions: Ovarian Cancer, 1.00E−5 Molar
Protocol: as §1

IGROV1 = assay: NCI in vitro DTP human cell line screen, IGROV1; type: cell-based; conditions: Ovarian Cancer, 1.00E−5 Molar
Protocol: as §1

HCT-15 = assay: NCI in vitro DTP human cell line screen, HCT-15; type: cell-based; conditions: Colon Cancer, 1.00E−5 Molar
Protocol: as §1

COLO 205 = assay: NCI in vitro DTP human cell line screen, COLO 205; type: cell-based; conditions: Colon Cancer, 1.00E−5 Molar
Protocol: as §1

OVCAR-5 = assay: NCI in vitro DTP human cell line screen, OVCAR-5; type: cell-based; conditions: Ovarian Cancer, 1.00E−5 Molar
Protocol: as §1

SNB-19 = assay: NCI in vitro DTP human cell line screen, SNB-19; type: cell-based; conditions: CNS Cancer, 1.00E−5 Molar
Protocol: as §1

OVCAR-4 = assay: NCI in vitro DTP human cell line screen, OVCAR-4; type: cell-based; conditions: Ovarian Cancer, 1.00E−5 Molar
Protocol: as §1

SN12C = assay: NCI in vitro DTP human cell line screen, SN12C; type: cell-based; conditions: Renal Cancer, 1.00E−5 Molar
Protocol: as §1

MOLT-4 = assay: NCI in vitro DTP human cell line screen, MOLT-4; type: cell-based; conditions: Leukemia, 1.00E−5 Molar
Protocol: as §1

HCC-2998 = assay: NCI in vitro DTP human cell line screen, HCC-2998; type: cell-based; conditions: Colon Cancer, 1.00E−5 Molar
Protocol: as §1

SK-OV-3 = assay: NCI in vitro DTP human cell line screen, SK-OV-3; type: cell-based; conditions: Ovarian Cancer, 1.00E−5 Molar
Protocol: as §1

SF-295 = assay: NCI in vitro DTP human cell line screen, SF-295; type: cell-based; conditions: CNS Cancer, 1.00E−5 Molar
Protocol: as §1

SF-539 = assay: NCI in vitro DTP human cell line screen, SF-539; type: cell-based; conditions: CNS Cancer, 1.00E−5 Molar
Protocol: as §1

786-0 = assay: NCI in vitro DTP human cell line screen, 786-0; type: cell-based; conditions: Renal Cancer, 1.00E−5 Molar
Protocol: as §1

KM12 = assay: NCI in vitro DTP human cell line screen, KM12; type: cell-based; conditions: Colon Cancer, 1.00E−5 Molar
Protocol: as §1

EKVX = assay: NCI in vitro DTP human cell line screen, EKVX; type: cell-based; conditions: Non-Small Cell Lung Cancer, 1.00E−5 Molar
Protocol: as §1

ACHN = assay: NCI in vitro DTP human cell line screen, ACHN; type: cell-based; conditions: Renal Cancer, 1.00E−5 Molar
Protocol: as §1

SK-MEL-2 = assay: NCI in vitro DTP human cell line screen, SK-MEL-2; type: cell-based; conditions: Melanoma, 1.00E−5 Molar
Protocol: as §1

CCRF-CEM = assay: NCI in vitro DTP human cell line screen, CCRF-CEM; type: cell-based; conditions: Leukemia, 1.00E−5 Molar
Protocol: as §1

UO-31 = assay: NCI in vitro DTP human cell line screen, UO-31; type: cell-based; conditions: Renal Cancer, 1.00E−5 Molar
Protocol: as §1

PC-3 = assay: NCI in vitro DTP human cell line screen, PC-3; type: cell-based; conditions: Prostate Cancer, 1.00E−5 Molar
Protocol: as §1

TK-10 = assay: NCI in vitro DTP human cell line screen, TK-10; type: cell-based; conditions: Renal Cancer, 1.00E−5 Molar
Protocol: as §1

NCI-H23 = assay: NCI in vitro DTP human cell line screen, NCI-H23; type: cell-based; conditions: Non-Small Cell Lung Cancer, 1.00E−5 Molar
Protocol: as §1

HL-60(TB) = assay: NCI in vitro DTP human cell line screen, HL-60(TB); type: cell-based; conditions: Leukemia, 1.00E−5 Molar
Protocol: as §1

M14 = assay: NCI in vitro DTP human cell line screen, M14; type: cell-based; conditions: Melanoma, 1.00E−5 Molar
Protocol: as §1

SR = assay: NCI in vitro DTP human cell line screen, SR; type: cell-based; conditions: Leukemia, 1.00E−5 Molar
Protocol: as §1

HOP-62 = assay: NCI in vitro DTP human cell line screen, HOP-62; type: cell-based; conditions: Non-Small Cell Lung Cancer, 1.00E−5 Molar
Protocol: as §1

[1] = MTT assay, HEL299 fibroblast; type: cell-based; conditions: human
Description: Please refer to FIG. 4C, various cell viabilities of the HEL299 cell lines can be obtained through the MTT assay while the compounds No. 1˜30 are used to treat HEL299 cell lines, wherein HEL299 cell lines are fibroblast.

K562 = assay: NCI in vitro DTP human cell line screen, K562; type: cell-based; conditions: Leukemia, 1.00E−5 Molar
Protocol: as §1

UACC-257 = assay: NCI in vitro DTP human cell line screen, UACC-257; type: cell-based; conditions: Melanoma, 1.00E−5 Molar
Protocol: as §1

NCI-H522 = assay: NCI in vitro DTP human cell line screen, NCI-H522; type: cell-based; conditions: Non-Small Cell Lung Cancer, 1.00E−5 Molar
Protocol: as §1

NCI-H226 = assay: NCI in vitro DTP human cell line screen, NCI-H226; type: cell-based; conditions: Non-Small Cell Lung Cancer, 1.00E−5 Molar
Protocol: as §1

60 cancer lines = assay: NCI cell toxicity assay of 60 cancer lines, whole panel summary; type: cell-based, human; conditions: 1.00E−5 Molar
Protocol: as §1

DU145 = assay: NCI in vitro DTP human cell line screen, DU145; type: cell-based; conditions: Prostate Cancer, 1.00E−5 Molar
Protocol: as §1

OVCAR-3 = assay: NCI in vitro DTP human cell line screen, OVCAR-3; type: cell-based; conditions: Ovarian Cancer, 1.00E−5 Molar
Protocol: as §1

CCCSc1ccc2c(=O)c3ccccc3sc2c1Cl [No. 3, 4-Chloro-3-(propylthio)-9H-thioxanthen-9-one]
Growth Percent (HT29): 103.50%
Growth Percent (MDA-MB-231/ATCC): 85.71%
Growth Percent (SK-MEL-5): 98.20%
Growth Percent (NCI-H460): 59.83%
Growth Percent (MDA-MB-435): 80.72%
Growth Percent (HCT-116): 61.89%
Growth Percent (SF-268): 80.00%
cell viabilities of A3 cell lines (MTT assay) (A3 cell lines): 103 ± 10.2%
Growth Percent (MALME-3M): 92.96%
Growth Percent (LOX IMVI): 64.69%
Growth Percent (NCI-H322M): 73.70%
Growth Percent (MCF7): 97.13%
Growth Percent (UACC-62): 84.56%
Growth Percent (NCI/ADR-RES): 93.97%
Growth Percent (OVCAR-8): 83.50%
Growth Percent (IGROV1): 91.28%
Growth Percent (HCT-15): 98.58%
Growth Percent (COLO 205): 92.63%
Growth Percent (OVCAR-5): 94.79%
Growth Percent (SNB-19): 94.29%
Growth Percent (OVCAR-4): 73.74%
Growth Percent (SN12C): 85.72%
Growth Percent (MOLT-4): 94.70%
Growth Percent (HCC-2998): 100.70%
Growth Percent (SK-OV-3): 104.52%
Growth Percent (SF-295): 82.14%
Growth Percent (SF-539): 82.48%
Growth Percent (786-0): 101.51%
Growth Percent (KM12): 86.73%
Growth Percent (EKVX): 96.42%
Growth Percent (ACHN): 74.17%
Growth Percent (SK-MEL-2): 114.59%
Growth Percent (CCRF-CEM): 85.29%
Growth Percent (UO-31): 99.45%
Growth Percent (PC-3): 94.80%
Growth Percent (TK-10): 103.80%
Growth Percent (NCI-H23): 91.47%
Growth Percent (HL-60(TB)): 118.59%
Growth Percent (M14): 102.38%
Growth Percent (SR): 75.26%
Growth Percent (HOP-62): 105.09%
viability [1]: 88.9 ± 11.1%
Growth Percent (K562): 94.26%
Growth Percent (UACC-257): 98.85%
Growth Percent (NCI-H522): 94.37%
Growth Percent (NCI-H226): 94.52%
Growth Percent, Mean (60 cancer lines; mean over all cell lines): 91.31%
cancer types with the better inhibition effect (in words) (60 cancer lines; summary of Table 3): better inhibition effect on non-small cell lung cancer
Growth Percent (DU145): 91.93%
Growth Percent (OVCAR-3): 90.35%

— US8410161B2, “Thioxanthone ring system derivatives” (National Defense Medical Center, priority 2010, dated 2013)
